From patent US12527741B2, “Modular dendron micelles for treatment of pulmonary diseases related to fibrosis and viral infection including COVID-19” (priority 2021, dated 2026)
Where no end group is shown, it is not given here.

Tests used:
BRD4 BD1 = BRD4 BD1 (Homo sapiens, UniProt O60885); experiment: Binding affinity to BRD4 BD1
Text: (§1) BRD4 is a member of the bromodomain and extraterminal (BET) protein family, containing two conserved bromodomains (BD). The BD is a high-affinity binding pocket for BRD4 binding to acetylated Lys residues on histones and transcription factors critical for histone acetyltransferase (HAT) activity. Small molecule BRD4 inhibitors that interact with the BRD4 BD inhibit BRD4 function by displacing BRD4 from genome binding sites, disrupting coactivator binding, and inhibiting its atypical HAT activity. A major limitation of pharmacological approaches to modifying BRD4 is that available inhibitors have poor selectivity for BRD isoforms. A third generation BRD4 inhibitor (BRD4i) with high selectivity for the BRD4 BD1 domain has been identified. This compound, ZL0591, binds with approximately 100 nM affinity to BRD4 BD1, but has 10× lower affinity for the BRD4 BD2 domain, and similarly has low affinity for BRD3.

BRD3 = BRD3 (Homo sapiens, UniProt Q15059); experiment: Binding affinity to BRD3
Text: as §1

BRD4 BD2 domain = BRD4 BD2 domain (Homo sapiens, UniProt O60885); experiment: Binding affinity to BRD4 BD2
Text: as §1

Intravenous half-life = assay type: in vivo
[1] = system: Bleomycin-induced fibrosis; experiment: Bleomycin-induced pulmonary fibrosis, therapeutic dosing; assay type: in vivo, mice
[2] = system: idiopathic pulmonary fibrosis; details: IPF patients; cited from earlier work
[3] = Hydrophobicity (log P) of BRD4 inhibitors; assay type: physicochemical
[4] = Drug loading and encapsulation efficiency of PCL14K-DMs; assay type: physicochemical; details: initial loading 20% wt, Dialysis
PD-L1 = PD-L1 (Homo sapiens, UniProt Q9NZQ7); details: SPR
7860 cells = experiment: Binding to high PD-L1 expressing cells; assay type: cell-based; details: fluorescence
Text: (§2) (SEQ ID NO: 5), optimized from the literature.

MCF-7 cells = experiment: Binding to cells with low PD-L1 expression; assay type: cell-based
Text: as §2

[5] = system: TGFβ-induced NOX4/SM22α/FN1 expression; experiment: TGFβ-induced myofibroblast transition, Q-RT-PCR of NOX4, SM22α and FN1; assay type: cell-based
BRD isoforms = assay type: binding; details: data not shown
fibroblast contractility = assay type: cell-based; details: TGFβ-induced

BRD3, sequence (Q15059 whole entry, species assumed): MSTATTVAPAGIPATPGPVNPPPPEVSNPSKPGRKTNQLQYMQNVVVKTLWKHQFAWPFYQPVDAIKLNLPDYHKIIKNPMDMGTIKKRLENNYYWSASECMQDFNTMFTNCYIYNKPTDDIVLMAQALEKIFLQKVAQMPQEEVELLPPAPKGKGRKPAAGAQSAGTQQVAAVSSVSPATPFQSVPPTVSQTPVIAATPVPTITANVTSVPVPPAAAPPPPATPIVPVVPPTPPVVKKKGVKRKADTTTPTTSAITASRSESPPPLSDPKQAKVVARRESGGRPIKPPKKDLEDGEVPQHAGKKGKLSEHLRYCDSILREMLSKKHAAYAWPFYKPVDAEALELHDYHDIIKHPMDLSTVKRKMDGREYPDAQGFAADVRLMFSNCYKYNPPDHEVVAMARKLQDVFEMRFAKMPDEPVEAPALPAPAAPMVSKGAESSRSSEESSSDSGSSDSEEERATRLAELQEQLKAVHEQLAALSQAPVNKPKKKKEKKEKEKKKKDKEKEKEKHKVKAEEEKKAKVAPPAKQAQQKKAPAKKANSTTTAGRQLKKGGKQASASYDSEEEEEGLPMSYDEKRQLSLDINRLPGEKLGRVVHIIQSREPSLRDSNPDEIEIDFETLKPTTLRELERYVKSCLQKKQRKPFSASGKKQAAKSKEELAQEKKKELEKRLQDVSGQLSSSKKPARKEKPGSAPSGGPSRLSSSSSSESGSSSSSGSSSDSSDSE
PD-L1, sequence (Q9NZQ7 19-290): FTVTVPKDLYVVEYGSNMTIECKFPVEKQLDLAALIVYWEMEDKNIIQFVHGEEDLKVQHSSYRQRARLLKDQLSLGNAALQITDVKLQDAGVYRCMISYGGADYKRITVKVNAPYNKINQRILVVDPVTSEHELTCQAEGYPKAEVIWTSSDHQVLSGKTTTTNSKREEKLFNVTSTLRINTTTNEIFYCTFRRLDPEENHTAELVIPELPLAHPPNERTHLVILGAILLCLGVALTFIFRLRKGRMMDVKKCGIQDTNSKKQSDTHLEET

In the case of `O=C(Nc1ccc(C(F)(F)F)cc1)Nc1ccc(S(=O)(=O)N2CCC[C@H]2CN2CCC(O)CC2)cc1` [ZL0591], the Kd (BRD4 BD1) is reported as ~100 nM, the “Affinity for BRD3” value (BRD3) is reported as “low affinity” and the “Lower affinity for BRD4 BD2 domain relative to BD1” value (BRD4 BD2 domain) is reported as 10 ×. For the same molecule, the “Intravenous T1/2” value (Intravenous half-life) was 11.8 h, the “Pulmonary collagen content (hydroxyproline in total lung homogenates)” value ([1]; 10 mg/kg/dose systemic (IP), started 14 d after bleomycin, 14 d of treatment) was “significantly reduced” and the Blood oxygen saturation ([1]; bleomycin- and BRD4 inhibitor-treated vs controls) was “increase”. For the same molecule, the “Alveolar consolidation and fibrotic pattern (Massons Trichrome)” value ([1]; fixed lung sections) was “substantially reduced”, the “Modified Ashcroft indices” value ([1]; scored by independent pathologist) was “reduction in Ashcroft indices was statistically significant” and the “Lung density by microCT” value ([1]; vs bleomycin treated only) was “reduction”.

For `Cc1ccc(=O)n(-c2ccccc2)c1` [pirfenidone], the “Decrease/loss of forced vital capacity (FVC)” value [2] is given as “slows” and the Progression-free survival [2] is given as “improves”.

For `COc1cc(OC)c2c(=O)cc(-c3cc(C)c(OC[C@H](O)CN4CCN(C)CC4)c(C)c3)oc2c1` [ZL0516], the “log P” value [3] was 2.89, the “Drug Loading %” value [4] was 0.70 ± 0.17% and the “Encapsulation Efficiency %” value [4] was 2.52 ± 0.17%.

With “G7-pPD1: PD-L1-binding peptide pPD-1 conjugated to G7 PAMAM dendrimers (HVVWHRESPSGQTDTLAA; also: conjugated to G7 PAMAM dendrimers, site not given here)” the “KD compared with full antibody (aPD-L1)” value (PD-L1) was “comparable”, the “Binding to PD-L1 expressing cells” value (7860 cells) was “selective binding” and the “Binding to PD-L1 expressing cells” value (7860 cells; listed as dendrimer-pPD-1) was “specific interaction”. The “Interaction with low PD-L1 expression cells” value (MCF-7 cells) was “lack of observed interactions”.

In the case of `Cc1sc2c(c1C)C(c1ccc(Cl)cc1)=N[C@@H](CC(=O)OC(C)(C)C)c1nnc(C)n1-2` [JQ1], the FN1 expression [5] is reported as “effectively blocked”, the NOX4 expression [5] is reported as “effectively blocked” and the SM22α expression [5] is reported as “effectively blocked”. The “Discrimination between BRD isoforms” value (BRD isoforms) was “no discrimination” and the “Contractility (retraction of collagen plugs)” value (fibroblast contractility) was “effectively inhibited”.

In the case of `COC(=O)c1ccc2c(c1)NC(=O)/C2=C(\Nc1ccc(N(C)C(=O)CN2CCN(C)CC2)cc1)c1ccccc1` [Nintedanib, nintedanib], the “Decrease/loss of forced vital capacity (FVC)” value [2] is given as “efficacy was shown”.
